Patent publication US20260305610A1, “TRIAZOLE COMPOUND, AND PREPARATION METHOD THEREFOR, HERBICIDAL COMPOSITION AND USE THEREOF” (QINGDAO KINGAGROOT CHEMICAL COMPOUND CO., LTD., priority 2023, published 2026)

Assays:
[1] = system: monocotyledonous and dicotyledonous weeds; experiment: Pre-emergence test experiment (weeds); format: in vivo; set-up: key: 9: completely dead; 8: growth control rate is greater than or equal to 90% and less than 100%; 7: growth control rate is greater than or equal to 80% and less than 90%; 6: growth control rate is greater than or equal to 70% and less than 80%; growth control rate is greater than or equal to 50% and less than 70%; 4: growth control rate is greater than or equal to 30% and less than 50%; growth control rate is greater than or equal to 20% and less than 30%; growth control rate is greater than or equal to 10% and less than 20%; growth control rate is less than 10%; 0: no effect; conditions: 30 g a.i./ha
major crops = experiment: Pre-emergence test experiment (crops); format: in vivo; set-up: key: 9: completely dead; 8: growth control rate is greater than or equal to 90% and less than 100%; 7: growth control rate is greater than or equal to 80% and less than 90%; 6: growth control rate is greater than or equal to 70% and less than 80%; growth control rate is greater than or equal to 50% and less than 70%; 4: growth control rate is greater than or equal to 30% and less than 50%; growth control rate is greater than or equal to 20% and less than 30%; growth control rate is greater than or equal to 10% and less than 20%; growth control rate is less than 10%; 0: no effect; conditions: 30 g a.i./ha

In the case of `N#Cc1cc(Oc2cccc(C(F)(F)F)c2)nc(-n2cnc(C(F)(F)F)n2)c1` [Compound 2], the “Pre-emergence activity level (growth control rate) on Amaranthus retroflexus” value [1] was 9, the “Pre-emergence activity level (growth control rate) on Descurainia sophia” value [1] was 9 and the “Pre-emergence activity level (growth control rate) on Digitaria sanguinalis” value [1] was 8 (growth control rate is greater than or equal to 90% and less than 100%). The “Pre-emergence activity level (growth control rate) on Setaria viridis” value [1] was 8 (growth control rate is greater than or equal to 90% and less than 100%), the “Pre-emergence activity level (growth control rate) on Solanum nigrum” value [1] was 9 and the “Pre-emergence activity level (growth control rate) on Veronica” value (“Pre-emergence activity level … on Veronica” below) [1] was 9. The “Pre-emergence plant damage level (growth control rate) on Corn” value (“Pre-emergence plant damage level … on Corn” below) (major crops) was 0, the “Pre-emergence plant damage level (growth control rate) on Cotton” value (“Pre-emergence plant damage level … on Cotton” below) (major crops) was 0 and the “Pre-emergence plant damage level (growth control rate) on Soybean” value (from here on “Pre-emergence plant damage level … on Soybean”) (major crops) was 0.

With `COc1cc(Oc2cccc(C(F)(F)F)c2)nc(-n2cnc(C(F)(F)F)n2)c1` [Compound 3] the “Pre-emergence activity level (growth control rate) on Amaranthus retroflexus” value [1] was 9, the “Pre-emergence activity level (growth control rate) on Descurainia sophia” value [1] was 9 and the “Pre-emergence activity level (growth control rate) on Digitaria sanguinalis” value [1] was 8 (growth control rate is greater than or equal to 90% and less than 100%). For the same compound, the “Pre-emergence activity level (growth control rate) on Setaria viridis” value [1] was 9, the “Pre-emergence activity level (growth control rate) on Solanum nigrum” value [1] was 9 and the “Pre-emergence activity level … on Veronica” value [1] was 9. For the same compound, the “Pre-emergence plant damage level … on Corn” value (major crops) was 0, the “Pre-emergence plant damage level … on Cotton” value (major crops) was 0 and the “Pre-emergence plant damage level … on Soybean” value (major crops) was 0.

In the case of `Cc1cc(Oc2cccc(C(F)(F)F)c2)nc(-n2cnc(C(F)(F)F)n2)c1` [Compound 5], the “Pre-emergence activity level (growth control rate) on Amaranthus retroflexus” value [1] was 9, the “Pre-emergence activity level (growth control rate) on Descurainia sophia” value [1] was 9 and the “Pre-emergence activity level (growth control rate) on Digitaria sanguinalis” value [1] was 9. For the same compound, the “Pre-emergence activity level (growth control rate) on Setaria viridis” value [1] was 9, the “Pre-emergence activity level (growth control rate) on Solanum nigrum” value [1] was 9 and the “Pre-emergence activity level … on Veronica” value [1] was 9. The “Pre-emergence plant damage level … on Corn” value (major crops) was 0, the “Pre-emergence plant damage level … on Cotton” value (major crops) was 0 and the “Pre-emergence plant damage level … on Soybean” value (major crops) was 0.

With `Cc1cc(Oc2cncc(C(F)(F)F)c2)nc(-n2cnc(C(F)(F)F)n2)c1` [Compound 6] the “Pre-emergence activity level (growth control rate) on Amaranthus retroflexus” value [1] was 9, the “Pre-emergence activity level (growth control rate) on Descurainia sophia” value [1] was 9 and the “Pre-emergence activity level (growth control rate) on Digitaria sanguinalis” value [1] was 9. The “Pre-emergence activity level (growth control rate) on Setaria viridis” value [1] was 9, the “Pre-emergence activity level (growth control rate) on Solanum nigrum” value [1] was 9 and the “Pre-emergence activity level … on Veronica” value [1] was 9. For the same compound, the “Pre-emergence plant damage level … on Corn” value (major crops) was 0, the “Pre-emergence plant damage level … on Cotton” value (major crops) was 0 and the “Pre-emergence plant damage level … on Soybean” value (major crops) was 0.

`FC(F)(F)c1cccc(Oc2nc(-n3cnc(C(F)(F)F)n3)ccc2Cl)c1` [Compound 7] was tested, and the “Pre-emergence activity level (growth control rate) on Amaranthus retroflexus” value [1] was 9, the “Pre-emergence activity level (growth control rate) on Descurainia sophia” value [1] was 9 and the “Pre-emergence activity level (growth control rate) on Digitaria sanguinalis” value [1] was 8 (growth control rate is greater than or equal to 90% and less than 100%). The “Pre-emergence activity level (growth control rate) on Setaria viridis” value [1] was 9, the “Pre-emergence activity level … on Veronica” value [1] was 9 and the “Pre-emergence plant damage level … on Corn” value (major crops) was 0. The “Pre-emergence plant damage level … on Cotton” value (major crops) was 0 and the “Pre-emergence plant damage level … on Soybean” value (major crops) was 0.

`Cc1ccc(-n2cnc(C(F)F)n2)nc1Oc1cccc(F)c1` [Compound 81] was tested, and the “Pre-emergence activity level (growth control rate) on Amaranthus retroflexus” value [1] was 9, the “Pre-emergence activity level (growth control rate) on Descurainia sophia” value [1] was 9 and the “Pre-emergence activity level … on Veronica” value [1] was 9.

For `CSc1cc(Oc2cccc(C(F)(F)F)c2)nc(-n2cnc(C(F)(F)F)n2)c1` [Compound 86], the “Pre-emergence activity level … on Veronica” value [1] was 9.

For `CSc1cc(Oc2cccc(OC(F)(F)F)c2)nc(-n2cnc(C(F)(F)F)n2)c1` [Compound 87], the “Pre-emergence activity level … on Veronica” value [1] was 8 (growth control rate is greater than or equal to 90% and less than 100%).

With `Cc1ccc(-n2cnc(C(F)(F)F)n2)nc1Oc1cccc(C#N)c1` [Compound 88] the “Pre-emergence activity level (growth control rate) on Amaranthus retroflexus” value [1] was 9 and the “Pre-emergence activity level (growth control rate) on Solanum nigrum” value [1] was 9.

For `CCc1ccc(-n2cnc(C(F)(F)F)n2)nc1Oc1cccc(C#N)c1` [Compound 89], the “Pre-emergence activity level (growth control rate) on Amaranthus retroflexus” value [1] was 9, the “Pre-emergence activity level (growth control rate) on Digitaria sanguinalis” value [1] was 9 and the “Pre-emergence activity level (growth control rate) on Setaria viridis” value [1] was 9.

With `CCc1ccc(-n2cnc(C(F)(F)F)n2)nc1Oc1cncc(C#N)c1` [Compound 94] the “Pre-emergence activity level (growth control rate) on Setaria viridis” value [1] was 8 (growth control rate is greater than or equal to 90% and less than 100%).

In the case of `CCc1ccc(-n2cnc(C(F)(F)F)n2)nc1Oc1ccc(F)c(C#N)c1` [Compound 96], the “Pre-emergence activity level (growth control rate) on Amaranthus retroflexus” value [1] was 8 (growth control rate is greater than or equal to 90% and less than 100%) and the “Pre-emergence activity level (growth control rate) on Descurainia sophia” value [1] was 9.

`Cc1ccc(-n2cnc(C3CC3)n2)nc1Oc1cccc(C(F)(F)F)c1` [Compound 100] was tested, and the “Pre-emergence activity level (growth control rate) on Setaria viridis” value [1] was 9 and the “Pre-emergence activity level (growth control rate) on Solanum nigrum” value [1] was 8 (growth control rate is greater than or equal to 90% and less than 100%).

In the case of `CSc1cc(Oc2cncc(C(F)(F)F)c2)nc(-n2cnc(C(F)(F)F)n2)c1` [Compound 111], the “Pre-emergence activity level (growth control rate) on Descurainia sophia” value [1] was 9 and the “Pre-emergence activity level (growth control rate) on Setaria viridis” value [1] was 8 (growth control rate is greater than or equal to 90% and less than 100%).

In the case of `Cc1cc(Oc2ccc(F)c(C(F)(F)F)c2)nc(-n2cnc(C(F)(F)F)n2)c1` [Compound 120], the “Pre-emergence activity level (growth control rate) on Descurainia sophia” value [1] was 9.

For `Cc1cc(Oc2cccc(Cl)c2)nc(-n2cnc(C(F)(F)F)n2)c1` [Compound 121], the “Pre-emergence activity level (growth control rate) on Descurainia sophia” value [1] was 9.

For `Cc1cc(Oc2cccc(OC(F)(F)F)c2)nc(-n2cnc(C(F)(F)F)n2)c1` [Compound 122], the “Pre-emergence activity level (growth control rate) on Amaranthus retroflexus” value [1] was 8 (growth control rate is greater than or equal to 90% and less than 100%), the “Pre-emergence activity level (growth control rate) on Descurainia sophia” value [1] was 9 and the “Pre-emergence activity level (growth control rate) on Digitaria sanguinalis” value [1] was 8 (growth control rate is greater than or equal to 90% and less than 100%). For the same compound, the “Pre-emergence activity level (growth control rate) on Setaria viridis” value [1] was 9 and the “Pre-emergence activity level … on Veronica” value [1] was 8 (growth control rate is greater than or equal to 90% and less than 100%).

`Cc1cc(Oc2ccc(F)c(OC(F)(F)F)c2)nc(-n2cnc(C(F)(F)F)n2)c1` [Compound 123] was tested, and the “Pre-emergence activity level (growth control rate) on Descurainia sophia” value [1] was 9.

`Cc1ccc(-n2cnc(C(F)(F)C(F)(F)F)n2)nc1Oc1cccc(C(F)F)c1` [Compound 125] was tested, and the “Pre-emergence activity level (growth control rate) on Descurainia sophia” value [1] was 9 and the “Pre-emergence activity level (growth control rate) on Solanum nigrum” value [1] was 9.

For `Cc1ccc(-n2cnc(C(F)(F)C(F)(F)F)n2)nc1Oc1ccc(F)c(C(F)(F)F)c1` [Compound 126], the “Pre-emergence activity level (growth control rate) on Descurainia sophia” value [1] was 9 and the “Pre-emergence activity level (growth control rate) on Solanum nigrum” value [1] was 9.

For `Cc1ccc(-n2cnc(C(F)(F)C(F)(F)F)n2)nc1Oc1cccc(OC(F)F)c1` [Compound 127], the “Pre-emergence activity level (growth control rate) on Descurainia sophia” value [1] was 9, the “Pre-emergence activity level (growth control rate) on Setaria viridis” value [1] was 8 (growth control rate is greater than or equal to 90% and less than 100%) and the “Pre-emergence activity level (growth control rate) on Solanum nigrum” value [1] was 9.

For `CCc1ccc(-n2cnc(C(F)F)n2)nc1Oc1cccc(F)c1` [Compound 128], the “Pre-emergence activity level (growth control rate) on Solanum nigrum” value [1] was 9.

`CCc1ccc(-n2cnc(C(F)(F)F)n2)nc1Oc1cccc(F)c1` [Compound 129] was tested, and the “Pre-emergence activity level (growth control rate) on Digitaria sanguinalis” value [1] was 8 (growth control rate is greater than or equal to 90% and less than 100%) and the “Pre-emergence activity level (growth control rate) on Setaria viridis” value [1] was 9.

For `CCc1ccc(-n2cnc(C(F)(F)F)n2)nc1Oc1cccc(Cl)c1` [Compound 130], the “Pre-emergence activity level (growth control rate) on Descurainia sophia” value [1] was 9 and the “Pre-emergence activity level (growth control rate) on Solanum nigrum” value [1] was 9.

With `CCc1ccc(-n2cnc(C(F)F)n2)nc1Oc1cccc(Cl)c1` [Compound 131] the “Pre-emergence activity level (growth control rate) on Solanum nigrum” value [1] was 9.

`CCc1ccc(-n2cnc(C(F)(F)F)n2)nc1Oc1cccc(C)c1` [Compound 134] was tested, and the “Pre-emergence activity level (growth control rate) on Amaranthus retroflexus” value [1] was 8 (growth control rate is greater than or equal to 90% and less than 100%), the “Pre-emergence activity level (growth control rate) on Descurainia sophia” value [1] was 9 and the “Pre-emergence activity level (growth control rate) on Digitaria sanguinalis” value [1] was 8 (growth control rate is greater than or equal to 90% and less than 100%).

In the case of `COCc1ccc(-n2cnc(C(F)(F)F)n2)nc1Oc1cccc(F)c1` [Compound 138], the “Pre-emergence activity level (growth control rate) on Descurainia sophia” value [1] was 9 and the “Pre-emergence activity level (growth control rate) on Solanum nigrum” value [1] was 9.
